Experimental data as given in patent US8877819B2, “Methods for treating heat stress and related compositions” (Georgetown University, priority 2008, dated 2014).

Columns and labels:
Zucker Fatty Rats (ZFR) [1] = assay: Survival after accidental heat stress; type: in vivo; conditions: Experiment 1; for survival after heat stress (survivors/group): day 42, 86-89° F. for 5-6 hours
Method: For two experiments, a total of 96 Zucker Fatty Rats (ZFR) (Charles River, Wilmington, Mass.) were used: 48 in each experiment were divided into four groups of 12 rats. Initial body weights ranged between 434 and 624 g in the first experiment and between 388 and 520 g in the second. All rats consumed a regular rat diet in crushed form (Purina Rat Chow, Ralston Purina, St. Louis, Mo.). Sucrose was added to the pulverized regular rat chow (30%, w/w). The four groups comprised a control eating the described diet and three test groups eating the same diet but with the addition of captopril or astaxanthin (two different doses). […] The amount of astaxanthin added was based on 2% (w/w) content of astaxanthin to powder. The first study continued for 57 days while the second continued for 75 days.
On the 42nd day, the temperature of rodent quarters rose from 72° F. to the range of 86-89° F. It was estimated that the rats were exposed to this elevated temperature for 5-6 hours. […] In contrast all ZFR in the Hi Asta group survived (11/11).
On a hot summer day, the air conditioning system in the animal quarters ceased functioning. The internal temperature of the animal quarters rose to a Fahrenheit range in the high 80's. Due to this heat stress, several ZFR that had already undergone almost six weeks of study expired. […] This can be attributed to poor stress handling of ZFR.

Zucker Fatty Rats (ZFR) [2] = assay: Insulin Challenge Testing (ICT); type: in vivo; conditions: Experiment 1, survivors after heat stress
Method: Testing was commenced after 17-19 hours of food deprivation. For ICT, 0.6 unit of regular insulin/kg BW (Eli Lilly Co., Indianapolis, Ind.) was administered, and blood for glucose determination was obtained from the tail vein at 7.5 min after injection. Glucose was estimated using commercial glucose strips (Lifescan, One Touch Ultra, […], Calif.).

Organ weights = type: in vivo, Zucker Fatty Rats; conditions: Experiment 2, after sacrifice, in g (unit assumed)
Method: Organ weights were measured immediately after sacrifice of the rats.

[3] = tested on: Thiobarbituric acid-reactive substances (TBARS); assay: Lipid peroxidation (TBARS) in hepatic and kidney homogenates; type: in vivo, Zucker Fatty Rats; conditions: Experiment 2
Method: Thiobarbituric acid-reactive substances (TBARS) as an index of lipid peroxidation were determined on hepatic and kidney homogenates from control and treated and malondialdehyde (MDA) was used as the standard.

DNA fragmentation = DNA fragmentation in liver and kidney; type: in vivo, Zucker Fatty Rats; conditions: Experiment 2; for DNA Fragmentation, Kidney / DNA Fragmentation, Liver: percentage of total DNA in the supernatant fraction
Method: Frozen liver and kidney samples were homogenized in lysis buffer (5 mM Tris-HCl, 20 mM EDTA, 0.5% Triton X-100, pH 8.0). Homogenates were centrifuged at 27,000 g for 20 min to separate intact chromatin in the pellet from fragmented DNA in the supernatant fraction. Pellets were re-suspended in 0.5 M perchloric acid and 5.5 M perchloric acid was added to supernatant samples to reach a concentration of 0.5 M. Samples were heated at 90° C. for 15 min and centrifuged at 1,500 g for 10 min to remove protein. Resulting supernatants were reacted with diphenylamine for 16-20 h at room temperature. Absorbance was measured at 600 nm. DNA fragmentation in control samples was expressed as percentage of total DNA appearing in the supernatant fraction. Treatment effects are reported as percent of control fragmentation.

[4] = Hi Asta, astaxanthin 25 mg/kg in feed
[5] = Lo Asta, astaxanthin 5 mg/kg in feed

SMILES: C[C@H](CS)C(=O)N1CCC[C@H]1C(=O)O [Captopril, reference compound]
- survival percentage after heat stress (Zucker Fatty Rats (ZFR) [1]; captopril 30 mg/kg in feed): 36%
- survival after heat stress (survivors/group) (Zucker Fatty Rats (ZFR) [1]; captopril 30 mg/kg in feed): 4/11
- Insulin: decrease in circulating glucose after insulin challenge (ICT) (Zucker Fatty Rats (ZFR) [2]; captopril 30 mg/kg in feed): -9.8 ± 3.5 mg/dL
- Organ weight, Epidydimal fat pad (Organ weights; captopril 30 mg/kg in feed): 19.1 ± 1.2
- Organ weight, Kidney (left) (Organ weights; captopril 30 mg/kg in feed): 2.3 ± 0.09
- Organ weight, Kidney (right) (Organ weights; captopril 30 mg/kg in feed): 2.3 ± 0.09
- Organ weight, Liver (Organ weights; captopril 30 mg/kg in feed): 43.1 ± 2.0
- Lipid peroxidation, Kidney ([3]; captopril 30 mg/kg in feed): 3.4 ± 0.44 nmoles MDA/mg protein
- Lipid peroxidation, Liver ([3]; captopril 30 mg/kg in feed): 4.0 ± 0.29 nmoles MDA/mg protein
- DNA Fragmentation (% Control), Kidney (DNA fragmentation; captopril 30 mg/kg in feed): 105 % Control
- DNA Fragmentation (% Control), Liver (DNA fragmentation; captopril 30 mg/kg in feed): 100 % Control
- DNA Fragmentation, Kidney (DNA fragmentation; captopril 30 mg/kg in feed): 4.5 ± 0.51
- DNA Fragmentation, Liver (DNA fragmentation; captopril 30 mg/kg in feed): 4.0 ± 0.17

SMILES: CC1=C(/C=C/C(C)=C/C=C/C(C)=C/C=C/C=C(C)/C=C/C=C(C)/C=C/C2=C(C)C(=O)[C@@H](O)CC2(C)C)C(C)(C)C[C@H](O)C1=O [Asta, astaxanthin]
- survival percentage after heat stress (Zucker Fatty Rats (ZFR) [1]; [4]): 100%
- survival percentage after heat stress (Zucker Fatty Rats (ZFR) [1]; [5]): 33%
- survival after heat stress (survivors/group) (Zucker Fatty Rats (ZFR) [1]; [4]): 11/11
- survival after heat stress (survivors/group) (Zucker Fatty Rats (ZFR) [1]; [5]): 4/12
- Insulin: decrease in circulating glucose after insulin challenge (ICT) (Zucker Fatty Rats (ZFR) [2]; [4]): -7.6 ± 2.5 mg/dL
- Insulin: decrease in circulating glucose after insulin challenge (ICT) (Zucker Fatty Rats (ZFR) [2]; [5]): -8.5 ± 4.1 mg/dL
- Organ weight, Epidydimal fat pad (Organ weights; [4]): 21.7 ± 12
- Organ weight, Kidney (left) (Organ weights; [4]): 2.4 ± 0.08
- Organ weight, Kidney (right) (Organ weights; [4]): 2.5 ± 0.10
- Organ weight, Liver (Organ weights; [4]): 43.3 ± 2.3
- Organ weight, Epidydimal fat pad (Organ weights; [5]): 19.3 ± 0.9
- Organ weight, Kidney (left) (Organ weights; [5]): 2.5 ± 0.16
- Organ weight, Kidney (right) (Organ weights; [5]): 2.5 ± 0.34
- Organ weight, Liver (Organ weights; [5]): 40.4 ± 2.4
- Lipid peroxidation, Kidney [3, 4]: 3.5 ± 0.30 nmoles MDA/mg protein
- Lipid peroxidation, Liver [3, 4]: 3.9 ± 0.46 nmoles MDA/mg protein
- Lipid peroxidation, Kidney [3, 5]: 3.9 ± 0.48 nmoles MDA/mg protein
- Lipid peroxidation, Liver [3, 5]: 4.7 ± 0.53 nmoles MDA/mg protein
- DNA Fragmentation (% Control), Kidney (DNA fragmentation; [4]): 100 % Control
- DNA Fragmentation (% Control), Liver (DNA fragmentation; [4]): 103 % Control
- DNA Fragmentation (% Control), Kidney (DNA fragmentation; [5]): 102 % Control
- DNA Fragmentation (% Control), Liver (DNA fragmentation; [5]): 108 % Control
- DNA Fragmentation, Kidney (DNA fragmentation; [4]): 4.3 ± 0.48
- DNA Fragmentation, Liver (DNA fragmentation; [4]): 4.1 ± 0.33
- DNA Fragmentation, Kidney (DNA fragmentation; [5]): 4.4 ± 0.37
- DNA Fragmentation, Liver (DNA fragmentation; [5]): 4.3 ± 0.38
